Measurements: paper PMC7582905, “Effect of Disulfide Cyclization of Ultrashort Cationic Lipopeptides on Antimicrobial Activity and Cytotoxicity” (International Journal of Molecular Sciences, 2020)
≈ marks a conversion by molar mass, not a printed value. Read-outs that look alike come from different tables or passages of the source. Where a SMILES comes first, the peptide text is derived from it. Bridges are numbered along the chain shown (N, C = ends). The star is where a group is joined. Palmitoyl = CCCCCCCCCCCCCCCC(=O)*

Key:
Type in all cases: cell-based
[1] = tested on: human cervical adenocarcinoma cell line (HeLa S3); experiment: MTT assay; conditions: 24 h incubation at 37 °C, six replicates per concentration, repeated at least twice
Method: (§1) To assess the cytotoxicity of the test lipopeptides (IC50), the classic MTT assay on 96-well polystyrene plates was performed for human keratinocytes (HaCaT) and human cervical adenocarcinoma cell line (HeLa S3) acquired from the ATCC. The assay utilizes colorimetric determination of the cell metabolic activity and the color intensity reflects the number of live cells that can be measured spectrophotometrically. The cell line was cultured in a Dulbecco’s modified Eagle Medium (Invitrogen) supplemented with 10% fetal bovine serum (v/v), 100 units/mL of penicillin, 100 μg/mL of streptomycin, and 2 mM l-glutamine and was stored at 37 °C in a humidified 5% CO2 incubator. Briefly, a day after plating of 500 cells per well, a series of concentrations (0.1–200 μg/mL) of the test compounds were applied. DMSO was added to the control cells at a final concentration of 1.0% (v/v), which was related to the maximal concentration of the solvent compounds used in the experiment. After 24 h of incubation with the lipopeptides at 37 °C in a humidified 5% CO2 incubator, a medium containing 1 mg/mL of MTT (3-(4,5-dimethylthiazol-2-yl)-2,5-diphenyltetrazolium bromide) was added to the wells up to a final concentration of 0.5 mg/mL. Subsequently, the plates were incubated at 37 °C for 4 h. Then, the medium was removed by suction, and the formazan product was solubilized with DMSO. The background absorbance at 630 nm was subtracted from that at 570 nm for each well (Epoch, BioTek Instruments, Winooski, VT, USA). Six replicates were conducted for each concentration. All experiments were repeated at least twice and the resulting IC50 values were calculated with a GraFit 7 software (v. 7.0, Erithacus, Berkley, CA, USA).

[2] = tested on: human keratinocytes (HaCaT); experiment: MTT assay; conditions: 24 h incubation at 37 °C, six replicates per concentration, repeated at least twice
Method: as §1

[3] = tested on: Staphylococcus epidermidis ATCC 14990
Method: (§2) The Staphylococcus aureus ATCC 25923, Staphylococcus epidermidis ATCC 14990, Escherichia coli ATCC 25922, Pseudomonas aeruginosa ATCC 9027, Candida albicans ATCC 10231, Candida glabrata ATCC 15126, Candida lipolytica PCM 2680-FY, and Candida tropicalis PCM 2709-FY strains were acquired from the Polish Collection of Microorganisms (PCM, Polish Academy of Sciences, Wrocław, Poland) and from the American Type Culture Collection (ATCC). All the strains were stored at −80 °C in Roti-Store cryo vials and before the tests were transferred into fresh Mueller–Hinton broth (MHB, Biocorp, Warsaw, Poland) for bacteria or RPMI-1640 (Sigma-Aldrich, Steinheim, Germany) for fungi and incubated for 24 h at 37 °C. Then, the cultures were seeded on Mueller–Hinton agar (BioMaxima, Lublin, Poland) or Sabouraud dextrose agar (SDA, BioMaxima, Lublin, Poland) plates, respectively, and incubated as just mentioned. These agar cultures were used for further microbiological assays. Cell densities for all assays were adjusted spectrophotometrically (Multiskan GO Microplate Spectrophotometer, Thermo Fisher Scientific, Vantaa, Finland) at 600 and 660 nm for bacteria and fungi, respectively.
(§3) MBECs were determined on 96-well polystyrene flat-bottom plates. For this purpose, 24 h cultures of microorganisms were diluted to obtain final density 5.0 × 10^5 CFU/mL and 2.0 × 10^5 CFU/mL of bacteria and fungi, respectively. Briefly, 100 µL of cell suspension was added into the test plates. After 24 h of incubation at 37 °C the wells were rinsed three times with a phosphate buffer saline (PBS, pH 7.4) to remove non-adherent cells. Subsequently, 100 μL of the test compounds in concentration range (0.5–256 μg/mL) were added to each well. After 24 h of incubation at 37 °C, 20 μL of a cell viability reagent was added (resazurin, 4 g/L; Sigma Aldrich, St. Louis, MO, USA). The MBEC was read after 1 h. The determined values were recorded as the lowest concentration at which the reduction of resazurin (from blue to pink) was lower or equal to 10 ± 0.5% as compared to the positive (100%) and negative (0%) controls. The reduction was monitored by measuring absorbance at 570 nm (reduced) and 600 nm (oxidized) using a microplate spectrophotometer (Multiskan GO Microplate Spectrophotometer, Thermo Fisher Scientific, Vantaa, Finland). All experiments were conducted in triplicate.

[4] = tested on: Candida albicans ATCC 10231
Method: as §2, §3

[5] = tested on: Pseudomonas aeruginosa ATCC 9027
Method: as §2, §3

[6] = tested on: Escherichia coli ATCC 25922
Method: as §2, §3

[7] = tested on: Candida glabrata ATCC 15126
Method: as §2, §3

[8] = tested on: Candida tropicalis PCM 2709-FY
Method: as §2, §3

[9] = tested on: Candida lipolytica PCM 2680-FY
Method: as §2, §3

[10] = tested on: Staphylococcus epidermidis ATCC 14990; remark: listed apart in the source
Method: as §2
(§4) The MICs were determined by broth microdilution method according to the Clinical and Laboratory Standard Institute guidelines For this purpose, initial inoculums of bacteria (5 × 10^5 CFU/mL) in MHB and yeasts (2 × 10^3 CFU/mL) in RPMI-1640 with 2% D-glucose were exposed to the ranging concentration of lipopeptides (0.5–256 μg/mL) and incubated at 37 °C for 18 h and 24 h, respectively. The experiments were conducted on 96-well microtiter polystyrene plates. The growth was assessed visually after incubation and the MIC was assumed as the lowest peptide concentration at which a noticeable growth of microorganisms was inhibited. All experiments were conducted in triplicate.

[11] = tested on: Candida albicans ATCC 10231; remark: listed apart in the source
Method: as §2, §4

[12] = tested on: Pseudomonas aeruginosa ATCC 9027; remark: listed apart in the source
Method: as §2, §4

[13] = tested on: Escherichia coli ATCC 25922; remark: listed apart in the source
Method: as §2, §4

[14] = tested on: Candida glabrata ATCC 15126; remark: listed apart in the source
Method: as §2, §4

[15] = tested on: Candida tropicalis PCM 2709-FY; conditions: 24 h
Method: as §2, §4

[16] = tested on: Candida lipolytica PCM 2680-FY; conditions: 24 h
Method: as §2, §4

[17] = 24 h biofilm on polystyrene plates, 24 h exposure at 37 °C, resazurin, triplicate
[18] = broth microdilution (CLSI), MHB, 5 × 10^5 CFU/mL, 37 °C, 18 h, visual, triplicate
[19] = broth microdilution (CLSI), RPMI-1640 with 2% D-glucose, 2 × 10^3 CFU/mL, 37 °C, 24 h, visual, triplicate
[20] = broth microdilution (CLSI), RPMI-1640 with 2% D-glucose, 2 × 10^3 CFU/mL, 37 °C, visual, triplicate

| HeLa IC50 [1] [mg/L] | MIC S. epidermidis ([10]; ATCC 14990, 18 h) [mg/L] | MIC C. albicans ([11]; ATCC 10231, 24 h) [mg/L] | MIC P. aeruginosa ([12]; ATCC 9027, 18 h) [mg/L] | MIC E. coli ([13]; ATCC 25922, 18 h) [mg/L] | MIC C. glabrata ([14]; ATCC 15126, 24 h) [mg/L] | MIC C. tropicalis ([15]; PCM 2709-FY) [mg/L] | MIC C. lipolytica [16] [mg/L] | Compound | HaCaT IC50 [2] [mg/L] | MBEC S. epidermidis ([3]; ATCC 14990, 24 h) [µg/mL] | MBEC C. albicans ([4]; ATCC 10231, 24 h) [µg/mL] | MBEC P. aeruginosa ([5]; ATCC 9027, 24 h) [µg/mL] | MBEC E. coli ([6]; ATCC 25922, 24 h) [µg/mL] | MBEC C. glabrata ([7]; ATCC 15126, 24 h) [µg/mL] | MBEC C. tropicalis ([8]; PCM 2709-FY, 24 h) [µg/mL] | MBEC C. lipolytica ([9]; 24 h) [µg/mL] | also measured |
| --- | --- | --- | --- | --- | --- | --- | --- | --- | --- | --- | --- | --- | --- | --- | --- | --- | --- |
| 3.0 ± 0.4 | 4 (≈ 4.85 µM) | 32 (≈ 38.8 µM) | 64 (≈ 77.7 µM) | 8 (≈ 9.71 µM) | 16 (≈ 19.4 µM) | 8 (≈ 9.71 µM) | 8 (≈ 9.71 µM) | CCCCCCCCCCCCCCCC(=O)N[C@@H](CCCNC(=N)N)C(=O)N[C@@H](CCCNC(=N)N)C(=O)N[C@@H](CCCCN)C(=O)N[C@@H](CCCCN)C(N)=O [L7, C16-RRKK-NH2] (Palmitoyl-RRKK-NH2) | 8.1 ± 1.1 | 64 | 64 | 256 | 256 | 128 | 64 | 16 |  |
| 3.9 ± 1.1 | 8 (≈ 12.5 µM) | 32 (≈ 50 µM) | 64 (≈ 100 µM) | 16 (≈ 25 µM) | 32 (≈ 50 µM) | 8 (≈ 12.5 µM) | 16 (≈ 25 µM) | CCCCCCCCCCCCCCCC(=O)N[C@@H](CCCCN)C(=O)N[C@@H](CCCCN)C(=O)N[C@@H](CCCCN)C(N)=O [L1, C16-KKK-NH2] | 5.2 ± 0.6 | 32 | 256 | 128 | 64 | 256 | 128 | 64 |  |
| 6.2 ± 2.7 | 8 (≈ 10 µM) | 32 (≈ 40.2 µM) | 64 (≈ 80.4 µM) | 8 (≈ 10 µM) | 64 (≈ 80.4 µM) | 8 (≈ 10 µM) | 8 (≈ 10 µM) | CCCCCCCCCCCCCCCC(=O)N[C@@H](CCCCN)C(=O)N[C@@H](CCCCN)C(=O)N[C@@H](CCCNC(=N)N)C(=O)N[C@@H](CCCCN)C(N)=O [L5, C16-KKRK-NH2] (Palmitoyl-KKRK-NH2) | 2.4 ± 0.4 | 32 | 256 | 256 | 64 | 256 | 128 | 64 |  |
| 25.5 ± 2.9 | 4 (≈ 4.74 µM) | 8 (≈ 9.48 µM) | 256 (≈ 303 µM) | 16 (≈ 19 µM) | 4 (≈ 4.74 µM) | 4 (≈ 4.74 µM) | 4 (≈ 4.74 µM) | CCCCCCCCCCCCCCCC(=O)N[C@H]1CSSC[C@@H](C(N)=O)NC(=O)[C@H](CCCCN)NC(=O)[C@H](CCCCN)NC(=O)[C@H](CCCCN)NC1=O [C1, C16-CKKKC-NH2] (Palmitoyl-CKKKC-NH2; disulfide 1-5) | 23.6 ± 6.0 | 32 | 256 | 256 | 256 | 256 | 128 | 64 |  |
| 38.8 ± 4.4 | 8 (≈ 8 µM) | 2 (≈ 2 µM) |  | 16 (≈ 16 µM) | 8 (≈ 8 µM) | 2 (≈ 2 µM) | 4 (≈ 4 µM) | CCCCCCCCCCCCCCCC(=O)N[C@H]1CSSC[C@@H](C(N)=O)NC(=O)[C@H](CCCCN)NC(=O)[C@H](CCCCN)NC(=O)[C@H](CCCCN)NC(=O)[C@H](CCCNC(=N)N)NC1=O [C3, C16-CRKKKC-NH2] (Palmitoyl-CRKKKC-NH2; disulfide 1-6) | 36.8 ± 2.7 | 128 | 32 | 256 | 256 | 32 | 32 | 16 |  |

| Compound | HeLa IC50 [1] [mg/L] | MIC S. epidermidis ([10]; ATCC 14990, 18 h) [mg/L] | MIC C. albicans ([11]; ATCC 10231, 24 h) [mg/L] | MIC P. aeruginosa ([12]; ATCC 9027, 18 h) [mg/L] | MIC E. coli ([13]; ATCC 25922, 18 h) [mg/L] | MIC C. glabrata ([14]; ATCC 15126, 24 h) [mg/L] | MIC C. tropicalis ([15]; PCM 2709-FY) [mg/L] | MIC C. lipolytica [16] [mg/L] | HaCaT IC50 [2] [mg/L] | MBEC S. epidermidis ([3]; ATCC 14990, 24 h) [µg/mL] | MBEC C. albicans ([4]; ATCC 10231, 24 h) [µg/mL] | MBEC P. aeruginosa ([5]; ATCC 9027, 24 h) [µg/mL] | MBEC E. coli ([6]; ATCC 25922, 24 h) [µg/mL] | MBEC C. glabrata ([7]; ATCC 15126, 24 h) [µg/mL] | MBEC C. tropicalis ([8]; PCM 2709-FY, 24 h) [µg/mL] | MBEC C. lipolytica ([9]; 24 h) [µg/mL] | also measured |
| --- | --- | --- | --- | --- | --- | --- | --- | --- | --- | --- | --- | --- | --- | --- | --- | --- | --- |
| CCCCCCCCCCCCCCCC(=O)N[C@H]1CSSC[C@@H](C(N)=O)NC(=O)[C@H](CCCCN)NC(=O)[C@H](CCCCN)NC(=O)[C@H](CCCCN)NC(=O)[C@H](CCCCN)NC1=O [C2, C16-CKKKKC-NH2] (Palmitoyl-CKKKKC-NH2; disulfide 1-6) | 17.9 ± 2.1 |  |  |  |  |  |  |  | 26.9 ± 1.9 |  |  |  |  |  |  |  | MBEC S. epidermidis [3, 17]: 32 µg/mL; MBEC C. albicans [4, 17]: 64 µg/mL; MBEC P. aeruginosa [5, 17]: > 256 µg/mL; MBEC E. coli [6, 17]: 64 µg/mL; MBEC C. glabrata [7, 17]: 64 µg/mL; MBEC C. tropicalis [8, 17]: 32 µg/mL; MBEC C. lipolytica [9, 17]: 16 µg/mL; MIC S. epidermidis [10, 18]: 8 mg/L (≈ 8.23 µM); MIC C. albicans [11, 19]: 4 mg/L (≈ 4.11 µM); MIC P. aeruginosa [12, 18]: 32 mg/L (≈ 32.9 µM); MIC E. coli [13, 18]: 64 mg/L (≈ 65.8 µM); MIC C. glabrata [14, 19]: 4 mg/L (≈ 4.11 µM); MIC C. tropicalis [15, 20]: 2 mg/L (≈ 2.06 µM); MIC C. lipolytica [16, 20]: 2 mg/L (≈ 2.06 µM) |
